Source: article PMC2228615 (The Journal of General Physiology, 1980)
Read-outs that look alike come from different tables or passages of the source.

Columns and labels:
[1] = biological target: ox-brain Na+,K+-ATPase; settings: cited from earlier work
[2] = system: Na+,K+-dependent ATPase; format: binding, turkey; settings: 150 mM Na+; for t1/2, observed half-time for disappearance of empty binding sites: 0.11-[…] K+, 37 C (Table I)
[3] = system: human erythrocytes; settings: similar conditions, estimated; cited from earlier work

| Structure (SMILES) | Kd ([1]; read-out: D, dissociation constant for the potassium ion-ATPase complex, partially purified ox-brain ATPase, 150 mM Na+) | activation energy for association (Arrhenius plot of k1) ([2]; 5-37 C) | activation energy for dissociation (Arrhenius plot of k-1) ([2]; 5-37 C) | time to attain equilibrium between free and bound radioligand ([2]; 20 C or higher, 0.5 mM K+, 0.85 uM [3H]ouabain (Fig. 1)) | k-1, dissociation rate constant ([2]; 37 C, 0.5 mM K+, after 1 mM nonradioactive ouabain (Fig. 2)) | t1/2, observed half-time for disappearance of empty binding sites ([2]; [3H]ouabain 1.7x10-7 M) | t1/2, observed half-time for disappearance of empty binding sites ([2]; [3H]ouabain 3.2x10-7 M) | t1/2, observed half-time for disappearance of empty binding sites ([2]; [3H]ouabain 8.1x10-7 M) | t1/2, observed half-time for disappearance of empty binding sites ([2]; [3H]ouabain 8.1x10-8 M) | activation energy for association (k1) ([1]; Na+,K+-ATPase from ox-brain cortex microsomes) | k-1, dissociation rate constant [3] |
| --- | --- | --- | --- | --- | --- | --- | --- | --- | --- | --- | --- |
| [K+] [potassium ion] | 2200 µM | – | – | – | – | – | – | – | – | – | – |
| C[C@@H]1O[C@@H](O[C@H]2C[C@@H](O)[C@]3(CO)[C@H]4[C@H](O)C[C@]5(C)[C@@H](C6=CC(=O)OC6)CC[C@]5(O)[C@@H]4CC[C@]3(O)C2)[C@H](O)[C@H](O)[C@H]1O [ouabain] | – | 29.5 kcal/mol | 24.2 kcal/mol | ≤ 15 min | 0.16 min⁻¹ | 2.2 min | 1.2 min | 0.49 min | 5.1 min | 21 to 23 kcal/mol | ~ 0.001 min-1 |
